Experimental data reported in US20050229260A1, “Compound screens relating to insulin deficiency or insulin resistance” (DevGen NV, priority 2000, published 2005).

Experiments:
[1] = target: protein phosphatase 2A; conditions: protein phosphatase 2A inhibitor; cited from earlier work
[2] = test system: PTP; conditions: PTP inhibitor; cited from earlier work
[3] = test system: C. elegans strain DR1564: daf-2(m41)
Protocol: All screening was done at 20 μM compound concentration in quadruplicates, except 2000 compounds of Diverset in triplicates. Confirmation was done at 4 concentrations. Questionable dose responses were repeated, if necessary at lower concentrations and/or 2 fold dilution steps. All worms that bypassed dauer stage, L4s and adults, were counted under a Leica MZ12 dissection scope and together referred to as number of adults per well. […] Data were transferred to Excel files and average and variance of the 8 controls of each plate calculated and plotted.
The number of wells was plotted against the number of adults per well and a negative binomial distribution fitted by maximum likelihood. […]
Then the number of adults per well where the cumulative negative binomial distribution was closest to 99% was determined and referred to as 1% cut-off. […]
The plates were then screened through quickly to find wells with a high number adults, which were counted and if found to reach the cut-off value the position on the lid was circled and the exact value written in the circle. […] Finally the transparent lids of the 4 replicate plates were stacked on top of each other and by looking through them it was determined whether 2 or more lids were circled in any position. […]

CC1(C(=O)O)C2CCC(O2)C1(C)C(=O)O (stereo not drawn) [Cantharidic acid]
IC50 [1]: 0.053 µM

CN(N=O)c1cc(O)ccc1O [Dephostatin]
IC50 [2]: 7.7 µM

COC[C@H]1OC(=O)c2coc3c2[C@@]1(C)C1=C(C3=O)[C@@H]2CCC(=O)[C@@]2(C)C[C@H]1OC(C)=O [Wortmannin]
active in the assay [3]: active
